What was measured:
Assay in all cases: relative viability (nuclei count vs DMSO), 5 days (fraction); higher = more cells survive
Ibrutinib + Linsitinib = compound: C=CC(=O)N1CCC[C@@H](n2nc(-c3ccc(Oc4ccccc4)cc3)c3c(N)ncnc32)C1 [Ibrutinib] + C[C@]1(O)C[C@@H](c2nc(-c3ccc4ccc(-c5ccccc5)nc4c3)c3c(N)nccn32)C1 [Linsitinib] (partner 1 µM)
In short: (§1)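 The day after seeding in 1536-well plates, lung cancer cell lines were treated by pin tool with a single drug, or with a fixed anchor-drug dose together with five library-drug doses (not always all listed) in √10 steps. After 5 days, a combined fix-and-stain solution (final 0.05% Triton X-100, 1% formaldehyde, 1 ug/ml Hoechst) was added. Nuclei counted on 4× images gave relative viability as treated counts over vehicle counts, reported as the median of duplicate plates.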

Ibrutinib + Olaparib = compound: C=CC(=O)N1CCC[C@@H](n2nc(-c3ccc(Oc4ccccc4)cc3)c3c(N)ncnc32)C1 [Ibrutinib] + O=C(c1cc(Cc2n[nH]c(=O)c3ccccc23)ccc1F)N1CCN(C(=O)C2CC2)CC1 [Olaparib] (partner 8 µM)
In short: as §1

BMX-IN-1 + Alpelisib = compound: C=CC(=O)Nc1cc(-n2c(=O)ccc3cnc4ccc(-c5ccc(NS(C)(=O)=O)cc5)cc4c32)ccc1C [BMX-IN-1] + Cc1nc(NC(=O)N2CCC[C@H]2C(N)=O)sc1-c1ccnc(C(C)(C)C(F)(F)F)c1 [Alpelisib] (partner 2 µM)
In short: as §1

BMX-IN-1 + Dasatinib = compound: C=CC(=O)Nc1cc(-n2c(=O)ccc3cnc4ccc(-c5ccc(NS(C)(=O)=O)cc5)cc4c32)ccc1C [BMX-IN-1] + Cc1nc(Nc2ncc(C(=O)Nc3c(C)cccc3Cl)s2)cc(N2CCN(CCO)CC2)n1 [Dasatinib] (partner 0.075 µM)
In short: as §1

| Cell Line | relative viability (Ibrutinib + Linsitinib; first compound 0.005 µM) | relative viability (Ibrutinib + Linsitinib; first compound 0.01581 µM) | relative viability (Ibrutinib + Linsitinib; first compound 0.05 µM) | relative viability (Ibrutinib + Linsitinib; first compound 0.1581 µM) | relative viability (Ibrutinib + Linsitinib; first compound 0.5 µM) | relative viability (Ibrutinib + Olaparib; first compound 0.005 µM) | relative viability (Ibrutinib + Olaparib; first compound 0.01581 µM) | relative viability (Ibrutinib + Olaparib; first compound 0.05 µM) | relative viability (Ibrutinib + Olaparib; first compound 0.1581 µM) | relative viability (Ibrutinib + Olaparib; first compound 0.5 µM) | relative viability (BMX-IN-1 + Alpelisib; first compound 0.02 µM) | relative viability (BMX-IN-1 + Alpelisib; first compound 0.2 µM) | relative viability (BMX-IN-1 + Alpelisib; first compound 0.6325 µM) | relative viability (BMX-IN-1 + Alpelisib; first compound 2 µM) | relative viability (BMX-IN-1 + Dasatinib; first compound 0.02 µM) | relative viability (BMX-IN-1 + Dasatinib; first compound 0.2 µM) | relative viability (BMX-IN-1 + Dasatinib; first compound 0.6325 µM) | relative viability (BMX-IN-1 + Dasatinib; first compound 2 µM) |
| --- | --- | --- | --- | --- | --- | --- | --- | --- | --- | --- | --- | --- | --- | --- | --- | --- | --- | --- |
| LC-2-ad | 0.829 | 0.778 | 0.89 | 0.869 | 0.745 | 0.802 | 0.719 | 0.859 | 0.741 | 0.739 | 0.915 | 0.962 | 0.998 | 0.898 | 0.658 | 0.737 | 0.74 | 0.642 |
| NCI-H23 | 0.396 | 0.508 | 0.545 | 0.568 | 0.518 | 0.335 | 0.355 | 0.383 | 0.41 | 0.311 | 0.617 | 0.793 | 0.603 | 0.692 | 0.839 | 0.994 | 0.855 | 0.722 |
